# Data taken from patent publication USRE46630E1, “Substituted 4-pyridones and their use as inhibitors of neutrophil elastase activity” (Boehringer Ingelheim International GmbH, priority 2012, dated 2017).
# Target: T1, Human neutrophil elastase (Homo sapiens, UniProt P08246)
# T1 construct: purchased Calbiochem 324681
# T1 sequence (P08246 30-267): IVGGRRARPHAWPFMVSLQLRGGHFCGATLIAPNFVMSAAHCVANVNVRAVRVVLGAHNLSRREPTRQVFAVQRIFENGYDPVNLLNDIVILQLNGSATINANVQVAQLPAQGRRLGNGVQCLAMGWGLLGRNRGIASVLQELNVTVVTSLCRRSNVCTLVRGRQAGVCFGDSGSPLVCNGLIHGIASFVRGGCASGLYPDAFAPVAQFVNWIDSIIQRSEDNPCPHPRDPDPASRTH
# Test: Human Neutrophil Elastase Assay
# Type: biochemical
# Conditions: Neutrophil Elastase assay; substrate MeOSuc-Ala-Ala-Pro-Val-AMC 250 μM; 15 min preincubation, 60 min incubation at room temperature; pH 7.5
# Procedure: Human Neutrophil Elastase Assay
# All other materials were of the highest grade commercially available.
# The following buffers were used: Compound buffer: 100 mM Tris, 500 mM NaCl, adjusted to pH 7.5; Assay buffer: 100 mM Tris, 500 mM NaCl, adjusted to pH 7.5, containing 0.01% BSA.
# Assay conditions: Test compounds were prediluted in DMSO and subsequently in compound buffer (5% DMSO final). […] After inactivation of the enzyme, fluorescence intensities were measured at 380 nm excitation and 460 nm emission wavelengths.
# Each plate contains wells with a high value control (DMSO+enzyme+substrate) and wells with a low value control (DMSO+inactivated enzyme+substrate). […] Means of low values were taken as 0%, means of high values as 100%.
row,Structure (SMILES),IC50
1,Cc1c(-c2ccnc(C(F)(F)F)c2)c(=O)c(C(=O)NCC[S+](C)[O-])cn1C(C)c1ccc(C#N)cc1 (stereo not drawn) [Example 9.3],3.9 nM
2,Cc1c(-c2ccnc(C(F)(F)F)c2)c(=O)c(C(=O)NC2COC2)cn1C(C)c1ccc(C#N)cc1 (stereo not drawn) [Example 9.17],10.1 nM
3,Cc1c(-c2cccc(C(F)(F)F)c2)c(=O)c(C(=O)NC(C)CO)cn1Cc1ccc(C#N)cc1 (stereo not drawn) [Example 1.22],44.6 nM
4,Cc1c(-c2cccc(C(F)(F)F)c2)c(=O)c(C(=O)NC2CC(=O)N(C)C2)cn1Cc1ccc(C#N)cc1 (stereo not drawn) [Example 1.61],11.4 nM
5,"CCNC(=O)c1cn(C(CC)c2ccc(C#N)cc2)c(C)c(-c2cccc(C(F)(F)F)c2)c1=O (stereo not drawn) [Example 35, 1-[1-(4-Cyano-phenyl)-propyl]-6-methyl-4-oxo-5-(3-trifluoromethyl-phenyl)-1,4-dihydro-pyridine-3-carboxylic acid ethylamide]",7.8 nM
6,Cc1c(-c2cccc(C(F)(F)F)c2)c(=O)c(C(=O)NC2(C#N)CC2)cn1C(C)c1ccc(C#N)cn1 (stereo not drawn) [Example 47.18],6.4 nM
7,Cc1c(-c2ccnc(C(F)(F)F)c2)c(=O)c(C(=O)NCC2CCCO2)cn1C(C)c1ccc(C#N)cc1 (stereo not drawn) [Example 9.32],19.4 nM
8,"CCCS(=O)(=O)c1cc(C#N)ccc1Cn1cc(C(=O)NC)c(=O)c(-c2cccc(C(F)(F)F)c2)c1C [Example 25, 1-[4-Cyano-2-(propane-1-sulfonyl)-benzyl]-6-methyl-4-oxo-5-(3-trifluoromethyl-phenyl)-1,4-dihydro-pyridine-3-carboxylic acid methylamide]",14 nM
9,Cc1c(-c2cccc(C(F)(F)F)c2)c(=O)c(C(=O)NCCN2CCCC2=O)cn1Cc1ccc(C#N)cc1 [Example 1.28],21.8 nM
10,CNC(=O)c1cn(Cc2ccc(C#N)cn2)c(C)c(-c2cccc(C(F)F)c2)c1=O [Example 34],31.2 nM
11,CNC(=O)c1cn(Cc2ccc(C#N)c(F)c2)c(C)c(-c2cccc(C(F)F)c2)c1=O [Example 33],14 nM
12,Cc1c(-c2cccc(F)c2)c(=O)c(C(=O)NCc2ccc(S(C)(=O)=O)cc2)cn1Cc1ccc(C#N)cc1 [Example 6.5],9.6 nM
13,Cc1c(-c2ccnc(C(F)(F)F)c2)c(=O)c(C(=O)NC2CCN(C)C2=O)cn1C(C)c1ccc(C#N)cc1 (stereo not drawn) [Example 9.12],4.6 nM
14,Cc1c(-c2ccnc(C(F)(F)F)c2)c(=O)c(C(=O)NCc2ccc(S(C)(=O)=O)cc2)cn1Cc1ccc(C#N)cc1F [Example 5.3],1.4 nM
15,COCCNC(=O)c1cn(C(C)c2ccc(C#N)cc2)c(C)c(-c2ccnc(C(F)(F)F)c2)c1=O (stereo not drawn) [Example 9.57],5.2 nM
16,"CS(=O)(=O)c1ccc(CNC(=O)c2cn(Cc3ccc(C#N)cc3)cc(-c3cccc(C(F)(F)F)c3)c2=O)nc1 [Example 13.2, 1-(4-Cyano-benzyl)-4-oxo-5-(3-trifluoromethyl-phenyl)-1,4-dihydro-pyridine-3-carboxylic acid (5-methanesulfonyl-pyridin-2-ylmethyl)-amide]",5.2 nM
17,"Cc1c(-c2cccc(C(F)F)c2)c(=O)c(C(=O)NCc2ccc(S(C)(=O)=O)cc2)cn1Cc1ccc(C#N)cc1F [Example 41, 1-(4-Cyano-2-fluoro-benzyl)-5-(3-difluoromethyl-phenyl)-6-methyl-4-oxo-1,4-dihydro-pyridine-3-carboxylic acid 4-methanesulfonyl-benzylamide]",< 1 nM
18,Cc1c(-c2cccc(C(F)(F)F)c2)c(=O)c(C(=O)NCc2ccc(S(C)(=O)=O)cc2)cn1[C@H](C)c1ccc(C#N)cc1 [Example 2.5A],< 1 nM
19,Cc1nnc(CNC(=O)c2cn(C(C)c3ccc(C#N)cc3)c(C)c(-c3ccnc(C(F)(F)F)c3)c2=O)o1 (stereo not drawn) [Example 9.7],7 nM
20,Cc1c(-c2cccc(C(F)(F)F)c2)c(=O)c(C(=O)NCc2cccnn2)cn1Cc1ccc(C#N)cc1 [Example 1.41],3.2 nM
21,Cc1c(-c2ccnc(C(F)(F)F)c2)c(=O)c(C(=O)NC2CCOC2)cn1C(C)c1ccc(C#N)cc1 (stereo not drawn) [Example 9.34],23.5 nM
22,Cc1c(-c2cccc(C(F)F)c2)c(=O)c(C(=O)NCCN(C)C)cn1C(C)c1ccc(C#N)cc1 (stereo not drawn) [Example 8.11],4.3 nM
23,Cc1c(-c2cccc(C(F)(F)F)c2)c(=O)c(C(=O)N[C@H]2CC[C@H](O)CC2)cn1Cc1ccc(C#N)cc1 [Example 1.27],46.4 nM
24,Cc1c(-c2ccnc(C(F)(F)F)c2)c(=O)c(C(=O)NCC(F)F)cn1C(C)c1ccc(C#N)cc1 (stereo not drawn) [Example 9.22],7.3 nM
25,Cc1c(-c2ccnc(C(F)(F)F)c2)c(=O)c(C(=O)NCC2CCOC2)cn1C(C)c1ccc(C#N)cc1 (stereo not drawn) [Example 9.21],9.5 nM
26,COc1cc(C#N)ccc1Cn1cc(C(=O)NCc2ccc(S(C)(=O)=O)cn2)c(=O)c(-c2cccc(C(F)(F)F)c2)c1C [Example 4.7],< 1 nM
27,Cc1c(-c2cccc(C(F)(F)F)c2)c(=O)c(C(=O)NCC(C)O)cn1Cc1ccc(C#N)cc1 (stereo not drawn) [Example 1.23],19 nM

row,Structure (SMILES),IC50
1,Cc1c(-c2cccc(C(F)F)c2)c(=O)c(C(=O)NC2CCN(C)C2=O)cn1C(C)c1ccc(C#N)cc1 (stereo not drawn) [Example 8.10],1.6 nM
2,Cc1c(-c2cccc(C(F)F)c2)c(=O)c(C(=O)NCc2ccno2)cn1C(C)c1ccc(C#N)cc1 (stereo not drawn) [Example 8.17],3.1 nM
3,COc1cncc(-c2c(C)n(Cc3ccc(C#N)cc3)cc(C(=O)NCc3ccc(S(C)(=O)=O)cc3)c2=O)c1 [Example 6.7],75.3 nM
4,Cc1c(-c2cccc(C(F)(F)F)c2)c(=O)c(C(=O)NCCCN(C)C)cn1C(C)c1ccc(C#N)cc1 (stereo not drawn) [Example 7.1],4.1 nM
5,Cc1c(-c2ccnc(C(F)(F)F)c2)c(=O)c(C(=O)NCC2CC2)cn1C(C)c1ccc(C#N)cc1 (stereo not drawn) [Example 9.20],10.9 nM
6,CCCNC(=O)c1cn(C(C)c2ccc(C#N)cc2)c(C)c(-c2ccnc(C(F)(F)F)c2)c1=O (stereo not drawn) [Example 9.14],7 nM
7,"CNC(=O)c1cn(C(C)c2ccc(C#N)cc2)c(C)c(-c2ccnc(C(F)(F)F)c2)c1=O (single isomer, unassigned) [Example 9B]",1510 nM
8,CNC(=O)c1cn(Cc2ccc(F)cc2)c(C)c(-c2cccc(C(F)(F)F)c2)c1=O [Example 3.3],51 nM
9,CNC(=O)c1cn(Cc2ccc(C#N)cc2)c(C)c(-c2cccc(C(F)(F)F)c2)c1=O [Example 1.11],14.4 nM
10,Cc1c(-c2cncc(C(F)(F)F)c2)c(=O)c(C(=O)NCc2ccc(S(C)(=O)=O)cc2)cn1Cc1ccc(C#N)cc1 [Example 6.13],2.5 nM
11,Cc1c(-c2cccc(C(F)(F)F)c2)c(=O)c(C(=O)NCc2cn(C)cn2)cn1Cc1ccc(C#N)cc1 [Example 1.31],13.7 nM
12,"CCC(c1ccc(C#N)cc1)n1cc(C(=O)NC)c(=O)c(-c2ccnc(C(F)(F)F)c2)c1C (stereo not drawn) [Example 36, 1-[1-(4-Cyano-phenyl)-propyl]-2-methyl-4-oxo-2′-trifluoromethyl-1,4-dihydro-[3,4′]bipyridinyl-5-carboxylic acid methylamide]",18.4 nM
13,CNC(=O)c1cn(Cc2ccc(C#N)cc2S(=O)(=O)C2CC2)c(C)c(-c2cccc(C(F)(F)F)c2)c1=O [Example 27],8.1 nM
14,Cc1nnc(CNC(=O)c2cn(Cc3ccc(C#N)cc3S(C)(=O)=O)c(C)c(-c3cccc(C(F)(F)F)c3)c2=O)o1 [Example 22],2.8 nM
15,Cc1cccc(-c2c(C)n(Cc3ccc(C#N)cc3)cc(C(=O)NCc3ccc(S(C)(=O)=O)cc3)c2=O)c1 [Example 6.2],1.5 nM
16,Cc1c(-c2cccc(C(F)F)c2)c(=O)c(C(N)=O)cn1C(C)c1ccc(C#N)cc1 (stereo not drawn) [Example 8.22],21.6 nM
17,"Cc1c(-c2cccc(C(F)(F)F)c2)c(=O)c(C(=O)NCC#N)cn1Cc1ccc(C#N)cc1 [Example 46, 1-(4-Cyano-benzyl)-6-methyl-4-oxo-5-(3-trifluoromethyl-phenyl)-1,4-dihydro-pyridine-3-carboxylic acid cyanomethyl-amide]",2.3 nM
18,CNC(=O)c1cn(Cc2ccc(C#N)c(F)c2)c(C)c(-c2cccc(C(F)(F)F)c2)c1=O [Example 3.5],19.3 nM
19,Cc1c(-c2cccc(C(F)(F)F)c2)c(=O)c(C(=O)NCc2ccnnc2)cn1Cc1ccc(C#N)cc1 [Example 1.14],1.8 nM
20,Cc1c(-c2cccc(C(F)(F)F)c2)c(=O)c(C(=O)NC2COC2)cn1Cc1ccc(C#N)cc1 [Example 1.38],36.9 nM
21,Cc1c(-c2cccc(C(F)(F)F)c2)c(=O)c(C(=O)NCCN2CCOCC2)cn1Cc1ccc(C#N)cc1 [Example 1.49],10.4 nM
22,Cc1c(-c2cccc(C(F)(F)F)c2)c(=O)c(C(=O)NCc2ccncc2)cn1Cc1ccc(C#N)cc1 [Example 1.50],1.4 nM
23,Cc1c(-c2cccc(C(F)F)c2)c(=O)c(C(=O)NCC[S+](C)[O-])cn1C(C)c1ccc(C#N)cc1 (stereo not drawn) [Example 8.8],1.1 nM
24,Cc1noc(CNC(=O)c2cn(C(C)c3ccc(C#N)cc3)c(C)c(-c3cccc(C(F)(F)F)c3)c2=O)n1 (stereo not drawn) [Example 7.2],2.5 nM
25,"CNC(=O)c1cn(C(C)c2ccc(C#N)cc2)c(C)c(-c2cccc(CF)c2)c1=O (stereo not drawn) [Example 31, 1-[1-(4-Cyano-phenyl)-ethyl]-5-(3-fluoromethyl-phenyl)-6-methyl-4-oxo-1,4-dihydro-pyridine-3-carboxylic acid methylamide]",7.8 nM
26,Cc1c(-c2cccc(C(F)(F)F)c2)c(=O)c(C(=O)NC2CNC(=O)C2)cn1Cc1ccc(C#N)cc1 (stereo not drawn) [Example 1.12],12.1 nM

# Same assay, conditions: eutomer versus distomer of the racemic example
row,Structure (SMILES),"neutrophil elastase inhibitory potency, one enantiomer compared with the other"
1,Cc1c(-c2cccc(C(F)(F)F)c2)c(=O)c(C(=O)NCc2ccc(S(C)(=O)=O)cc2)cn1[C@H](C)c1ccc(C#N)cc1 [Example 2.5A],much more active
